# Assay results: patent US3931244A, “Thioureas” (John Wyeth & Brother Limited, priority 1973, dated 1976)
# System: appetite
# Assay: Anorectic test: length of spaghetti eaten by starved mice during a two hour test period
# Format: in vivo
# Conditions: 100 mg/kg per os, dosed one hour before test, overnight-starved male mice, (mean length eaten by control - test)/control × 100
# Method: The compounds of the invention may be tested for anorectic properties by the following procedure:
# Groups of 8 or 10 male mice weighing 22-24 grams are starved overnight, although access to water is not restricted. The animals are dosed with the test drug or vehicle alone (control) one hour before they are placed individually into glass jars. The jars (100 mm diameter × 80 mm high) have lids fitted with a glass tube to accommodate a stick of spaghetti of approximate length of 450 mm. The glass tube is arranged such that only 5 mm of spaghetti is exposed for eating by the mouse. The length of spaghetti eaten during a two hour test period is indicative of the appetite of the animal.
# When tested by this procedure at a dose of 100 mg/kg per os the following results were obtained: […]
row,Structure (SMILES),% Inhibition of appetite
1,"C[C@@H](Cc1ccccc1)NC(=S)NC(=O)c1ccccc1 [Example 1, N-Benzoyl-N'-(1-methyl-2-phenyl)ethylthiourea]",90%
2,"O=C(NC(=S)NCCc1ccccc1)c1ccccc1 [Example 2, N-Benzoyl-N'-phenthylthiourea]",49%
3,"COc1ccc(C(=O)NC(=S)N[C@@H](C)Cc2ccccc2)cc1 [Example 3, N-(4-Methoxybenzoyl)-N'-(1-methyl-2-phenyl)ethylthiourea]",52%
4,"C[C@@H](Cc1ccccc1)NC(=S)NC(=O)c1cccc(C(F)(F)F)c1 [Example 4, N-(3-Trifluoromethylbenzoyl)-N'-(1-methyl-2-phenyl)-ethylthiourea]",49%
5,"C[C@@H](Cc1ccccc1)NC(=S)NC(=O)c1ccc(Cl)cc1 [Example 5, N-(4-Chlorobenzoyl)-N'-(1-methyl-2-phenyl)ethylthiourea]",41%
6,C[C@@H](Cc1ccccc1)NC(=S)NC(=O)c1ccco1 [Example 6],40%
7,"Cc1cccc(C(=O)NC(=S)N[C@@H](C)Cc2ccccc2)c1 [Example 7, N-(3-Toluoyl)-N'-(1-methyl-2-phenyl)ethylthiourea]",53%
